Test results from US12594281B2, “Pharmaceutical dosage forms and methods of use” (EMALEX BIOSCIENCES, INC., priority 2024, dated 2026).
“And” between values parts separate entries of the source, which are not always exact repeats. Equal values may be shown once. Read-outs that look alike come from different tables or passages of the source.

Key:
[1] = cited from earlier work
[2] = target: ^3H-23390 binding site (Homo sapiens, UniProt P21728); conditions: read-out: Ki ^3H-23390; cited from earlier work
[3] = target: ^3H-Spip binding site (Homo sapiens, UniProt P14416); conditions: read-out: Ki ^3H-Spip; cited from earlier work
[4] = BCS solubility of Ecopipam HCl in pH buffers and bio-relevant media; format: physicochemical; conditions: for solubility at 24 h: 37 °C, thermodynamic from solid; for Solubility / Purity at 24 hours in solubility test: 37° C.
Experimental: Solubility and final pH were the average of three parallel values. Purity was that of 24 hours. N/A means not performed.

[5] = Phase 1 absorption, metabolism and excretion study of [14C]-ecopipam, single oral capsule dose; format: in vivo, human
Text: Healthy subjects of any ethnic origin, aged between 35 and 55 years, inclusive, with a body mass index between 18.0 and 30.0 kg/m^2, inclusive, were selected for the study.

[6] = Clinical drug-drug interaction study with rifampicin (EBS-101-HV-106); format: in vivo, human; conditions: rifampicin co-administered with oral ecopipam
Text: (§1) The results from these studies are summarized in Table 7 below along with clinical recommendations.

[7] = Clinical drug-drug interaction study with divalproate sodium, general UGT inhibitor (EBS-101-HV-102); format: in vivo, human; conditions: divalproate sodium co-administered with oral ecopipam
Text: as §1

[8] = Clinical drug-drug interaction study with mefenamic acid, specific UGT1A9 inhibitor (EBS-101-HV-102); format: in vivo, human; conditions: mefenamic acid co-administered with oral ecopipam
Text: as §1

[9] = Pharmacokinetics of sublingual vs oral tablet in minipigs
Text: The minipigs were 4-5 months old with a weight range within 10-15 kg at dosing. 3 male animals were used.
The concentration-time data were normalized for differences in dose.

[10] = Phase 2 exposure-response for efficacy in Tourette's Disorder; format: in vivo, human; conditions: logistic regression model
[11] = Thorough QT study with C-QT analysis (EBS-101-HV-105); format: in vivo, human; conditions: for 10 msec increase in ΔΔQTcF interval: primary model
Experimental: A randomized, double-blind, single dose, 4-way crossover thorough QT study was conducted with an open-label active control (EBS-101-HV-105, 2024).
The primary endpoint for this study was pre-specified to be based on C-QT analysis using the methods outlined in the white paper (Garnett C, 2018) (Garnett C B. P., 2018).

[12] = Exposure-response analyses for safety (sedation, QTc); parameters: species or system human; conditions: in vivo
Text: Exposure-response analyses have been conducted for safety using sedation as an endpoint and cardiac safety (QTc).

[13] = single oral dose 200 mg, fasted
[14] = after single oral dose of [14C]-ecopipam HCl
[15] = minipig, dose-normalized, Zydis ODT 25 mg sublingual vs IR tablet 50 mg oral (ecopipam HCl)
[16] = single oral dose 200 mg [14C]-ecopipam HCl
[17] = single dose of ecopipam 537.6 mg

^3H-23390 binding site, sequence (P21728 whole entry): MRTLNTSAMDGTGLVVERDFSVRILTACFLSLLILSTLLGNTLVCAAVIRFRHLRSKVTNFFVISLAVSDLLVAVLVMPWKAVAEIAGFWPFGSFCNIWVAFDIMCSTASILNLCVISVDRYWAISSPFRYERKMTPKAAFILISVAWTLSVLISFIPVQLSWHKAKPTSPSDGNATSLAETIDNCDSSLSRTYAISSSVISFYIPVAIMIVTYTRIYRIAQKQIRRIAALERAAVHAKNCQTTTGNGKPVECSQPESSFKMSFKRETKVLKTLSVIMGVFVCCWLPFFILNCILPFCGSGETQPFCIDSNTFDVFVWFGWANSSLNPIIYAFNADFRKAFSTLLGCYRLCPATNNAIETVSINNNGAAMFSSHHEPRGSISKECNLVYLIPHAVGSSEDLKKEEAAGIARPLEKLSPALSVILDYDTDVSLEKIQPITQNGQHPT
^3H-Spip binding site, sequence (P14416 whole entry): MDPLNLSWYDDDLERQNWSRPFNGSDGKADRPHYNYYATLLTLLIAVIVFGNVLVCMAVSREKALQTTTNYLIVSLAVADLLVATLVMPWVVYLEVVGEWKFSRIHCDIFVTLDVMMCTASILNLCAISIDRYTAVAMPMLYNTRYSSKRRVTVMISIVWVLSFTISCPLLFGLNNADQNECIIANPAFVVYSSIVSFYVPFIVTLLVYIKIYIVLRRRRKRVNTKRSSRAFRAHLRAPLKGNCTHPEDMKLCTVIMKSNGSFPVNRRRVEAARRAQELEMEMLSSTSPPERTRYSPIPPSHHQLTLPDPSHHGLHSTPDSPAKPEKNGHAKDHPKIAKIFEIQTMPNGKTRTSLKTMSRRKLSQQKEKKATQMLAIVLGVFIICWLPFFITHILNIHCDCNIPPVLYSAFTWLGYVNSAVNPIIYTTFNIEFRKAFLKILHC

Structure (SMILES): CN1CCc2cc(Cl)c(O)cc2C2c3ccccc3CCC21 (stereo not drawn) [CH2/1/trans/Cl/OH]
- CAR (MED) ([1]; po): 30 (po);
- CAR (MED) ([1]; sc): 0.3 (sc)

Structure (SMILES): CN1CCc2ccc(O)cc2C2c3ccccc3CCC21 (stereo not drawn) [CH2/1/trans/H/OH]
- Ki [2]: 30 nM
- Ki [3]: 3500 nM

Structure (SMILES): COc1cc2c(cc1O)C1c3ccccc3CCCC1N(C)CC2 (stereo not drawn) [CH2/2/trans/CH3O/OH]
- Ki [2]: 292 nM
- Ki [3]: > 100000 nM
- CAR (MED) ([1]; sc): 10 (sc)

Structure (SMILES): COc1cc2c(cc1O)CCN(C)C1CCCc3ccccc3C21 (stereo not drawn) [CH2/2/trans/HO/CH3O]
- Ki [2]: 7730 nM
- Ki [3]: > 100000 nM
- CAR (MED) ([1]; sc): 10 (sc)

Structure (SMILES): CN1CCc2cc(Cl)c(O)cc2[C@H]2c3ccccc3CC[C@@H]21.Cl [Ecopipam HCl]
- solubility at 24 h ([4]; pH 1.2, simulated gastric fluid, pH 1.2 HCl buffer, 50 mM, up to 24 hours, final pH 1.23): 1560 µg/mL
- solubility at 24 h ([4]; pH 1.61, fassgf or other biorelevant, FaSSGF, final pH 1.61): 2000 µg/mL
- solubility at 24 h ([4]; pH 3, aqueous buffer, pH 3.0 citrate buffer, 100 mM, up to 24 hours, final pH 2.96): 9400 µg/mL
- solubility at 24 h ([4]; pH 3, aqueous buffer, pH 3.0 phthalate buffer, 50 mM, up to 24 hours, final pH 3.05): 8 µg/mL
- solubility at 24 h ([4]; pH 4.5, aqueous buffer, pH 4.5 acetate buffer, 50 mM, up to 24 hours, final pH 4.50): 3300 µg/mL
- solubility at 24 h ([4]; pH 5.5, aqueous buffer, pH 5.5 acetate buffer, 50 mM, up to 24 hours, final pH 5.49): 230 µg/mL
- solubility at 24 h ([4]; pH 5.84, fessif, FeSSIF-V2, final pH 5.84): 660 µg/mL
- solubility at 24 h ([4]; pH 6.49, fassif, FaSSIF-V2, final pH 6.49): 50 µg/mL
- solubility at 24 h ([4]; pH 6.8, aqueous buffer, pH 6.8 phosphate buffer, 50 mM, up to 24 hours, final pH 6.85): 20 µg/mL
- Solubility ([4]; FaSSGF, final pH 1.61): 2020 µg/mL
- XRPD (crystalline form after solubility test) ([4]; FaSSIF-V2): Changed
- XRPD (crystalline form after solubility test) ([4]; FeSSIF-V2): Changed
- Time stable in bio-relevant media ([4]; bio-relevant media at 37° C., degradation occurred from 3 hours): up to 1 hour
- Purity at 24 hours in solubility test ([4]; pH 1.2 HCl buffer, 50 mM): 99.87%
- XRPD (crystalline form after solubility test) ([4]; pH 3.0 citrate buffer, 100 mM): did not exhibit a change in crystallinity
- Purity at 24 hours in solubility test ([4]; pH 3.0 citrate buffer, 100 mM): 99.87%
- Solubility ([4]; pH 3.0 citrate buffer, 100 mM, up to 24 hours, final pH 2.96): 9420 µg/mL
- XRPD (crystalline form after solubility test) ([4]; pH 3.0 phthalate buffer, 50 mM): Changed
- XRPD (crystalline form after solubility test) ([4]; pH 4.5 acetate buffer, 50 mM): Changed
- Purity at 24 hours in solubility test ([4]; pH 4.5 acetate buffer, 50 mM): 99.85%
- XRPD (crystalline form after solubility test) ([4]; pH 5.5 acetate buffer, 50 mM): Changed
- Purity at 24 hours in solubility test ([4]; pH 5.5 acetate buffer, 50 mM): 100.00%
- XRPD (crystalline form after solubility test) ([4]; pH 6.8 phosphate buffer, 50 mM): Changed
- Purity at 24 hours in solubility test ([4]; pH 6.8 phosphate buffer, 50 mM): 100.00%

Structure (SMILES): CN1CCc2ccc(O)cc2C2c3ccccc3OCC21 (stereo not drawn) [O/1/trans/H/OH]
- Ki [2]: 121 nM

Structure (SMILES): CN1CCc2cc(Cl)c(O)cc2[C@H]2c3ccccc3CC[C@@H]21.Cl [[^14C]-ecopipam HCl]
- Median time of the maximum observed concentration of total radioactivity in whole blood ([5]; single oral dose 200 mg): 2.00 hours postdose
- Arithmetic mean radioactivity recovered in feces [5, 13]: 8.27%
- Arithmetic mean radioactivity recovered in urine [5, 13]: 83.3%

Structure (SMILES): CN1CCc2cc(Cl)c(O[C@@H]3O[C@H](C(=O)O)[C@@H](O)[C@H](O)[C@H]3O)cc2C2c3ccccc3CCC21 (stereo partly drawn) [ecopipam glucuronide, ecopipam O-β-D-glucuronide]
- Share of radioactivity in plasma [5, 14]: 80%
- Share of radioactivity in the urine [5, 14]: 67%
- Lower Cmax [6]: 22%
- Lower Cmax [7]: 23%
- Lower Cmax [8]: 15%
- Ratio of SL/oral AUC [9, 15]: 0.15
- Ratio of SL/oral Cmax [9, 15]: 0.24
- Reduction of first pass metabolite concentration vs oral dosage form for oral systemic administration ([9]; sublingual / intraoral dosage form): 76-85% and 75-85%

Structure (SMILES): CN1CCc2cc(Cl)c(O)cc2[C@H]2c3ccccc3CC[C@@H]21 [ecopipam, (−)-trans-6,7,7a,8,9,13b-hexahydro-3-chloro-2-hydroxy-N-methyl-5H-benzo [d]-naphtho-[2,1-b]azepine]
- half-life ([5]; male, human, plasma, single oral dose 200 mg [14C]-ecopipam HCl, read-out: Geometric mean apparent terminal elimination half-life (t½) of analyte (converted)): 17.3 h
- CL renal ([5]; male, human, urine, single oral dose 200 mg [14C]-ecopipam HCl, read-out: Geometric mean renal clearance (converted)): 4.73 mL/min
- Share of the radiolabeled dose found as ecopipam in plasma ([5]; oral systemic administration): about 1.69%
- Median time of the maximum observed concentration of analyte in plasma [5, 16]: 2.00 hours postdose
- Percentage of dose excreted in urine as analyte (geometric mean) [5, 16]: < 1%
- Unchanged compound in feces, share of the total administered dose [5, 16]: 6%
- Increase in odds of being a responder at 12 weeks per 100 unit increase in combined steady-state AUC of ecopipam and EBS-101-40853 [10]: 6.8%
- 10 msec increase in ΔΔQTcF interval ([11]; single dose ecopipam 179.2 mg + a general UGT inhibitor): cannot be ruled out
- 10 msec increase in ΔΔQTcF interval ([11]; single dose ecopipam 179.2 mg): can be ruled out
- Effect on QTcF [11, 17]: increase
- Predicted increase in ΔΔQTcF interval [11, 17]: up to 20.4 msec
- Effect on HR, QRS, or PR intervals ([11]; single doses 179.2 mg and 537.6 mg): no effect
- Exposure-response relationship for QTc [12]: exposure-response relationship
- Relationship between plasma Cmax or AUCinf and choice reaction time or visual analogue scale for sedation [12]: no relationship
- Lower Cmax and AUC∞ [6]: substantially (72-77%) lower Cmax
- Increase in AUC∞ [7]: 40853 glucuronide, a ~2.1x increase
